Literature values in US12599555B2, “Formulation” (priority 2019, dated 2026).

Settings: administered by inhalation in the treatment of asthma

O=C([O-])c1cc(=O)c2c(OCC(O)COc3cccc4oc(C(=O)[O-])cc(=O)c34)cccc2o1.[Na+].[Na+] [sodium cromoglicate, disodium 5,5′-[(2-hydroxytrimethylene)dioxy]bis-[4-oxo-4H-1-benzopyran-2-carboxylate]]
bioavailability: 10-15%
